Measurements published in patent US10980809B2, “Urea-substituted aromatic ring-linked dioxane-quinazoline and -linked dioxane-quinoline compounds, preparation method therefor and use thereof” (BEIJING SCITECH-MQ PHARMACEUTICALS LIMITED, priority 2017, dated 2021).

molecular target: VEGFR-2 kinase (Homo sapiens (Human), UniProt P35968); test: Test of small molecule compounds for inhibiting the activity of VEGFR-2 kinase; type: biochemical; details: class symbols A-D
Procedure: Test of Small Molecule Compounds for Inhibiting the Activity of VEGFR-2 Kinase
The test was carried out as follows:
2. 2.5 μl of the gradient-diluted compounds was taken with a transfer pipette to a 384-well plate,
3. Addition of enzyme: 5 μl of 2×VEGFR-2 kinase was taken with a transfer pipette to the corresponding reaction well of the 384-well plate, which was mixed and pre-reacted at room temperature for 30 min,
5. Negative control: 2.5 μl/well 4× substrate/ATP Mix and 7.5 μl 1× Kinase Assay Buffer were added to the wells of the 384-well plate,
Positive control: 2.5 μl/well 4× substrate/ATP Mix, 2.5 μl/well 1× Kinase Assay Buffer containing 4% DMSO, and 5 μl/well 2×VEGFR-2 solution were added to the 384-well plate. The final concentration of DMSO in the reaction system is […],
6. The mixture was mixed well and then centrifuged and reacted at room temperature in dark for 60 min,
9. The 384-well plate was placed into the Envision plate reader and the signal was detected using the appropriate program,

Sequence of VEGFR-2 kinase (P35968 20-1356): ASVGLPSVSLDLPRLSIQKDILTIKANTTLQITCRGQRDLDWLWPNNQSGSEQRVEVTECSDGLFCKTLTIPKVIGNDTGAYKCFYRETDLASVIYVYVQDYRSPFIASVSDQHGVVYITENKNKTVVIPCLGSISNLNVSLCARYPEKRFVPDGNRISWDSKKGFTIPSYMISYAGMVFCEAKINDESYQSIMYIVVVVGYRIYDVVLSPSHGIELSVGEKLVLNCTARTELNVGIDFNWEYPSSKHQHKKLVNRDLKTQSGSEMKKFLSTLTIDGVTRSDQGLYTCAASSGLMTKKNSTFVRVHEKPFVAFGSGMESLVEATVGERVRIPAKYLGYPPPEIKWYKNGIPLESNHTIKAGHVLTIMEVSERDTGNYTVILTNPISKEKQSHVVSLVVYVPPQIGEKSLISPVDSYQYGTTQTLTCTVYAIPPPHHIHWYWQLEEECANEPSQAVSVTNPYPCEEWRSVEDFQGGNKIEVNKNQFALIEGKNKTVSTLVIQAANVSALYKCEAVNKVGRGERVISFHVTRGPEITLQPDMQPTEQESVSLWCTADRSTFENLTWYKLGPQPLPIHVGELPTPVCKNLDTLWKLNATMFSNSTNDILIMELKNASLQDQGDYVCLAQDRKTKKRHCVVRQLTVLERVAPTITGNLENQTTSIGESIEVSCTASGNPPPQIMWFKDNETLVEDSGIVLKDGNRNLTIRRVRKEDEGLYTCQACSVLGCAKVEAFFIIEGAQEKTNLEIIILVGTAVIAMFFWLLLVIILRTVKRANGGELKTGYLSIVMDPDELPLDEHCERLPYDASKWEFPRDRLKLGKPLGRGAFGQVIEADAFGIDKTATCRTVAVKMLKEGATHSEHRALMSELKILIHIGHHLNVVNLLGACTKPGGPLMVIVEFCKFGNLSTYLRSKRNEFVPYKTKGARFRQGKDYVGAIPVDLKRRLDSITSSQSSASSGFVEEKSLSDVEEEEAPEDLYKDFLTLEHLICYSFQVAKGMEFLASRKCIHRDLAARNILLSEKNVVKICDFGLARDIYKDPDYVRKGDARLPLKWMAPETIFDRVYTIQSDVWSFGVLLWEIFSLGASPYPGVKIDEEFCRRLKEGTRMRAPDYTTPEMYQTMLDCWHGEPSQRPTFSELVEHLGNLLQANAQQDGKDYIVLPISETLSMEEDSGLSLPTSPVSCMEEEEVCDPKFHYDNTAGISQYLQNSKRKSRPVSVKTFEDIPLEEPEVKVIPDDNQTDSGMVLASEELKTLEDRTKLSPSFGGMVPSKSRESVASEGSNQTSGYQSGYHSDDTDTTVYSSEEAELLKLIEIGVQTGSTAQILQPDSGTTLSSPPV

SMILES	IC50
COc1cc2ncnc(Oc3ccc(NC(=O)NC4CCCCC4)c(Cl)c3)c2c2c1OCCO2 [Example 33, 1-(2-chloro-4-((5-methoxy-2,3-dihydro-[1,4]dioxino[2,3-f]quinazolin-10-yl)oxy)phenyl)-3-cyclohexylurea]	< 0.05 µM
COCCOc1cc2ncnc(Nc3ccc(NC(=O)NC4CC4)c(Cl)c3)c2c2c1OCCO2 [Example 34, 1-(2-chloro-4-((5-(2-methoxyethoxy)-2,3-dihydro-[1,4]dioxino[2,3-f]quinazolin-10-yl)amino)phenyl)-3-cyclopropylurea]	< 0.05 µM
COCCOc1cc2ncnc(Nc3ccc(NC(=O)Nc4cccc(OC)c4)c(Cl)c3)c2c2c1OCCO2 [Example 35, 1-(2-chloro-4-((5-(2-methoxyethoxy)-2,3-dihydro-[1,4]dioxino[2,3-f]quinazolin-10-yl)amino)phenyl)-3-(3-methoxyphenyl)urea]	< 0.05 µM
COCCOc1cc2ncnc(Nc3ccc(NC(=O)Nc4ccccn4)c(Cl)c3)c2c2c1OCCO2 [Example 36, 1-(2-chloro-4-((5-(2-methoxyethoxy)-2,3-dihydro-[1,4]dioxino[2,3-f]quinazolin-10-yl)amino)phenyl)-3-(pyridin-2-yl)urea]	> 5 µM
COCCOc1cc2ncnc(Nc3ccc(NC(=O)Nc4ccccc4)c(Cl)c3)c2c2c1OCCO2 [Example 37, 1-(2-chloro-4-((5-(2-methoxyethoxy)-2,3-dihydro-[1,4]dioxino[2,3-f]quinazolin-10-yl)amino)phenyl)-3-phenylurea]	< 0.05 µM
COCCOc1cc2ncnc(Nc3ccc(NC(=O)Nc4ccc(F)cc4)c(Cl)c3)c2c2c1OCCO2 [Example 38, 1-(2-chloro-4-((5-(2-methoxyethoxy)-2,3-dihydro-[1,4]dioxino[2,3-f]quinazolin-10-yl)amino)phenyl)-3-(4-fluorophenyl)urea]	< 0.05 µM
COCCOc1cc2ncnc(Nc3ccc(NC(=O)Nc4cc(C)no4)c(Cl)c3)c2c2c1OCCO2 [Example 39, 1-(2-chloro-4-((5-(2-methoxyethoxy)-2,3-dihydro-[1,4]dioxino[2,3-f]quinazolin-10-yl)amino)phenyl)-3-(3-methylisoxazol-5-yl)urea]	< 0.05 µM
COCCOc1cc2ncnc(Nc3ccc(NC(=O)NC(C)C)c(Cl)c3)c2c2c1OCCO2 [Example 40, 1-(2-chloro-4-((5-(2-methoxyethoxy)-2,3-dihydro-[1,4]dioxino[2,3-f]quinazolin-10-yl)amino)phenyl)-3-isopropylurea]	0.05 to 0.5 µM
COCCOc1cc2ncnc(Nc3ccc(NC(=O)Nc4ccnc(OC)c4)c(Cl)c3)c2c2c1OCCO2 [Example 41, 1-(2-chloro-4-((5-(2-methoxyethoxy)-2,3-dihydro-[1,4]dioxino[2,3-f]quinazolin-10-yl)amino)phenyl)-3-(2-methoxypyridin-4-yl)urea]	< 0.05 µM
COCCOc1cc2ncnc(Nc3ccc(NC(=O)Nc4ccc(C(F)(F)F)cc4F)c(Cl)c3)c2c2c1OCCO2 [Example 43, 1-(2-chloro-4-((5-(2-methoxyethoxy)-2,3-dihydro-[1,4]dioxino[2,3-f]quinazolin-10-yl)amino)phenyl)-3-(2-fluoro-4-(trifluoromethyl)phenyl)urea]	< 0.05 µM
COCCOc1cc2ncnc(Nc3ccc(NC(=O)Nc4ccc(Oc5ccccc5)cc4)c(Cl)c3)c2c2c1OCCO2 [Example 44, 1-(2-chloro-4-((5-(2-methoxyethoxy)-2,3-dihydro-[1,4]dioxino[2,3-f]quinazolin-10-yl)amino)phenyl)-3-(4-(phenoxy)phenyl)urea]	> 5 µM
COCCOc1cc2ncnc(Oc3ccc(NC(=O)Nc4cccc(OC)c4)cc3Cl)c2c2c1OCCO2 [Example 51, 1-(3-chloro-4-((5-(2-methoxyethoxy)-2,3-dihydro-[1,4]dioxino[2,3-f]quinazolin-10-yl)oxy)phenyl)-3-(3-methoxyphenyl)urea]	< 0.05 µM
COCCOc1cc2ncnc(Oc3ccc(NC(=O)Nc4ccnc(OC)c4)cc3)c2c2c1OCCO2 [Example 52, 1-(4-((5-(2-methoxyethoxy)-2,3-dihydro-[1,4]dioxino[2,3-f]quinazolin-10-yl)oxy)phenyl)-3-(2-methoxypyridin-4-yl)urea]	< 0.05 µM
COCCOc1cc2ncnc(Oc3ccc(NC(=O)Nc4ccnc(OC)c4)cc3Cl)c2c2c1OCCO2 [Example 53, 1-(3-chloro-4-((5-(2-methoxyethoxy)-2,3-dihydro-[1,4]dioxino[2,3-f]quinazolin-10-yl)oxy)phenyl)-3-(2-methoxypyridin-4-yl)urea]	< 0.05 µM
COCCOc1cc2ncnc(Oc3ccc(NC(=O)NC4CCC4)c(Cl)c3)c2c2c1OCCO2 [Example 54, 1-(2-chloro-4-((5-(2-methoxyethoxy)-2,3-dihydro-[1,4]dioxino[2,3-f]quinazolin-10-yl)oxy)phenyl)-3-cyclobutylurea]	< 0.05 µM
COCCOc1cc2ncnc(Oc3ccc(NC(=O)NC4CCCC4)c(Cl)c3)c2c2c1OCCO2 [Example 55, 1-(2-chloro-4-((5-(2-methoxyethoxy)-2,3-dihydro-[1,4]dioxino[2,3-f]quinazolin-10-yl)oxy)phenyl)-3-cyclopentylurea]	< 0.05 µM
COCCOc1cc2ncnc(Oc3ccc(NC(=O)NC4CCCCC4)c(Cl)c3)c2c2c1OCCO2 [Example 56, 1-(2-chloro-4-((5-(2-methoxyethoxy)-2,3-dihydro-[1,4]dioxino[2,3-f]quinazolin-10-yl)oxy)phenyl)-3-cyclohexylurea]	< 0.05 µM
COCCOc1cc2ncnc(Oc3ccc(NC(=O)Nc4cc(C(F)(F)F)ccc4F)c(F)c3)c2c2c1OCCO2 [Example 57, 1-(2-fluoro-4-((5-(2-methoxyethoxy)-2,3-dihydro-[1,4]dioxino[2,3-f]quinazolin-10-yl)oxy)phenyl)-3-(2-fluoro-5-(trifluoromethyl)phenyl)urea]	< 0.05 µM
COCCOc1cc2ncnc(Oc3ccc(NC(=O)Nc4cc(C(F)(F)F)ccc4F)cc3F)c2c2c1OCCO2 [Example 58, 1-(3-fluoro-4-((5-(2-methoxyethoxy)-2,3-dihydro-[1,4]dioxino[2,3-f]quinazolin-10-yl)oxy)phenyl)-3-(2-fluoro-5-(trifluoromethyl)phenyl)urea]	< 0.05 µM
COCCOc1cc2ncnc(Oc3ccc(NC(=O)Nc4ccc(Cl)c(C(F)(F)F)c4)cc3F)c2c2c1OCCO2 [Example 59, 1-(4-chloro-3-(trifluoromethyl)phenyl)-3-(3-fluoro-4-((5-(2-methoxyethoxy)-2,3-dihydro-[1,4]dioxino[2,3-f]quinazolin-10-yl)oxy)phenyl)urea]	< 0.05 µM
COCCOc1cc2ncnc(Oc3ccc(NC(=O)Nc4ccc(Cl)c(C(F)(F)F)c4)cn3)c2c2c1OCCO2 [Example 60, 1-(4-chloro-3-(trifluoromethyl)phenyl)-3-(6-((5-(2-methoxyethoxy)-2,3-dihydro-[1,4]dioxino[2,3-f]quinazolin-10-yl)oxy)pyridin-3-yl)urea]	0.05 to 0.5 µM
O=C(Nc1ccc(Nc2ncnc3cc(OCCCN4CCCC4)c4c(c23)OCCO4)cc1Cl)NC1CC1 [Example 61, 1-(2-chloro-4-((5-(3-(pyrrolidin-1-yl)propoxy)-2,3-dihydro-[1,4]dioxino[2,3-f]quinazolin-10-yl)amino)phenyl)-3-cyclopropylurea]	< 0.05 µM
O=C(Nc1ccc(Nc2ncnc3cc(OCCCN4CCOCC4)c4c(c23)OCCO4)cc1Cl)NC1CC1 [Example 63]	< 0.05 µM
O=C(Nc1ccc(Cl)c(C(F)(F)F)c1)Nc1ccc(Oc2ncnc3cc(OCCCN4CCOCC4)c4c(c23)OCCO4)cc1F [Example 69, 1-(4-chloro-3-(trifluoromethyl)phenyl)-3-(2-fluoro-4-((5-(3-morpholinopropoxy)-2,3-dihydro-[1,4]dioxino[2,3-f]quinazolin-10-yl)oxy)phenyl)urea]	< 0.05 µM
O=C(Nc1ccc(Oc2ncnc3cc(OCCN4CCOCC4)c4c(c23)OCCO4)cc1)Nc1ccc(Cl)c(C(F)(F)F)c1 [Example 72, 1-(4-chloro-3-(trifluoromethyl)phenyl)-3-(4-((5-(2-morpholinoethoxy)-2,3-dihydro-[1,4]dioxino[2,3-f]quinazolin-10-yl)oxy)phenyl)urea]	0.5 to 5 µM
O=C(Nc1ccc(Oc2ncnc3cc(OCCCN4CCOCC4)c4c(c23)OCCO4)cc1)Nc1ccc(F)c(Cl)c1 [Example 74, 1-(3-chloro-4-fluorophenyl)-3-(4-((5-(3-morpholinopropoxy)-2,3-dihydro-[1,4]dioxino[2,3-f]quinazolin-10-yl)oxy)phenyl)urea]	< 0.05 µM
O=C(Nc1ccc(Oc2ncnc3cc(OCCCN4CCOCC4)c4c(c23)OCCO4)cc1)Nc1ccc(F)c(C(F)(F)F)c1 [Example 75, 1-(4-fluoro-3-(trifluoromethyl)phenyl)-3-(4-((5-(3-morpholinopropoxy)-2,3-dihydro-[1,4]dioxino[2,3-f]quinazolin-10-yl)oxy)phenyl)urea]	< 0.05 µM
O=C(Nc1ccc(Oc2ncnc3cc(OCCN4CCCC4)c4c(c23)OCCO4)cc1)Nc1cc(C(F)(F)F)ccc1F [Example 76, 1-(2-fluoro-5-(trifluoromethyl)phenyl)-3-(4-((5-(2-(tetrahydropyrrol-1-yl)ethoxy)-2,3-dihydro-[1,4]dioxino[2,3-f]quinazolin-10-yl)oxy)phenyl)urea]	> 5 µM
CCOc1cc2ncnc(Oc3ccc(NC(=O)Nc4cc(C(F)(F)F)ccc4F)cc3)c2c2c1OCCO2 [Example 77, 1-(4-((5-ethoxy-2,3-dihydro-[1,4]dioxino[2,3-f]quinazolin-10-yl)oxy)phenyl)-3-(2-fluoro-5-(trifluoromethyl)phenyl)urea]	< 0.05 µM
